Results as given in patent US20050238675A1, “Water-soluble formulations of fat soluble vitamins and pharmaceutical agents and their applications” (priority 2004, published 2005).

How the values were obtained:
[1] = Solubility measurement of Co-Q10 in aqueous solution (HPLC assay); format: physicochemical
[2] = Solubility measurement of beta-carotene in water (0.45 micron filtration, UV-Vis spectrometry); format: physicochemical; conditions: beta-carotene admixed in edible oil, mixed with 10 ml DI water, 0.45 micron syringe filter
Protocol: Solubility Measurement: For comparison purpose, the solubility of beta-carotene was measured both in edible oil and in the micellized product of Example 1 described above. In these measurements a suitable amount of sample is mixed with 10 ml of DI water for at least 10 minutes. The solutions are filtered through 0.45 microns syringe filter. The beta-carotene contained in the sample after this filtration is measured by UV-Vis spectrometry. […] 100% of the originally admixed beta-carotene is measured to be present in the micellized filtered sample of Example 1.

SMILES | Co-Q10 detected in aqueous solution [1] | beta-carotene found in the aqueous sample [2]
COC1=C(OC)C(=O)C(C/C=C(\C)CC/C=C(\C)CC/C=C(\C)CC/C=C(\C)CC/C=C(\C)CC/C=C(\C)CC/C=C(\C)CC/C=C(\C)CC/C=C(\C)CCC=C(C)C)=C(C)C1=O [Co-Q10 powder, ubidecarenone] | no Co-Q10 detected | 
CC1=C(/C=C/C(C)=C/C=C/C(C)=C/C=C/C=C(C)/C=C/C=C(C)/C=C/C2=C(C)CCCC2(C)C)C(C)(C)CCC1 [beta-carotene] |  | No detectable amount
